In patent US20230072860A1, “ISOXAZOLINE OXIME FORMATE COMPOUND, PREPARATION METHOD THEREFOR, HERBICIDAL COMPOSITION AND USE THEREOF” (QINGDAO KINGAGROOT CHEMICAL COMPOUND CO., LTD., priority 2020, published 2023):

Legend:
Assay in all cases: Experiment on weeding effect in post-emergence stage
Format in all cases: in vivo
Conditions in all cases: dose 15 g a.i./ha, fresh weight control rate level
Abutilon theophrasti = test system: Abutilon theophrasti
In short: (§1)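 Post-emergence spray-tower treatment at 2-3 leaf stage, doses 500, 250, 125, 60, 15 g a.i./ha. Formulation: acetone solution plus Tween 80, methyl oleate EC synergist (1.5 liter/ha), diluted in water. Greenhouse pots; weed control counted 3 weeks post-application, mean of three repeats.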

Amaranthus retroflexus = test system: Amaranthus retroflexus
In short: as §1

Digitaria sanguinalis = test system: Digitaria sanguinalis
In short: as §1

Echinochloa crusgalli = test system: Echinochloa crusgalli
In short: as §1

Eleusine indica = test system: Eleusine indica
In short: as §1

Galium aparine = test system: Galium aparine
In short: as §1

Leptochloa chinensis = test system: Leptochloa chinensis
In short: as §1

Setaria viridis = test system: Setaria viridis
In short: as §1

Veronica didyma Tenore = test system: Veronica didyma Tenore
In short: as §1

Compound	weeding effect in post-emergence stage, Abutilon theophrasti (level) (Abutilon theophrasti)	weeding effect in post-emergence stage, Amaranthus retroflexus (level) (Amaranthus retroflexus)	weeding effect in post-emergence stage, Digitaria sanguinalis (level) (Digitaria sanguinalis)	weeding effect in post-emergence stage, Echinochloa crusgalli (level) (Echinochloa crusgalli)	weeding effect in post-emergence stage, Eleusine indica (level) (Eleusine indica)	weeding effect in post-emergence stage, Galium aparine (level) (Galium aparine)	weeding effect in post-emergence stage, Leptochloa chinensis (level) (Leptochloa chinensis)	weeding effect in post-emergence stage, Setaria viridis (level) (Setaria viridis)	weeding effect in post-emergence stage, Veronica didyma Tenore (level) (Veronica didyma Tenore)
CC(C)=NOC(=O)C1(C)CC(c2nc(-n3c(=O)n(C)c(=S)n(C)c3=O)c(F)cc2Cl)=NO1 (racemic) [Compound 16]	5 (Level 5: growth control rate is above 85%)	5 (Level 5: growth control rate is above 85%)	5 (Level 5: growth control rate is above 85%)	5 (Level 5: growth control rate is above 85%)	5 (Level 5: growth control rate is above 85%)	5 (Level 5: growth control rate is above 85%)	5 (Level 5: growth control rate is above 85%)	5 (Level 5: growth control rate is above 85%)	5 (Level 5: growth control rate is above 85%)
CC(C)=NOC(=O)C1(C)CC(c2cc(-n3c(=O)cc(C(F)(F)F)n(C)c3=O)c(F)cc2Cl)=NO1 (stereo not drawn) [Compound 160]	5 (Level 5: growth control rate is above 85%)	5 (Level 5: growth control rate is above 85%)	5 (Level 5: growth control rate is above 85%)	5 (Level 5: growth control rate is above 85%)	5 (Level 5: growth control rate is above 85%)	5 (Level 5: growth control rate is above 85%)	5 (Level 5: growth control rate is above 85%)	5 (Level 5: growth control rate is above 85%)	5 (Level 5: growth control rate is above 85%)
C/C(=N\OC(=O)C1(C)CC(c2cc(-n3c(=O)n(C)c(=S)n(C)c3=S)c(F)cc2Cl)=NO1)C(C)(C)C (stereo not drawn) [Compound 59]	5 (Level 5: growth control rate is above 85%)	5 (Level 5: growth control rate is above 85%)	5 (Level 5: growth control rate is above 85%)	5 (Level 5: growth control rate is above 85%)	5 (Level 5: growth control rate is above 85%)	5 (Level 5: growth control rate is above 85%)	5 (Level 5: growth control rate is above 85%)	5 (Level 5: growth control rate is above 85%)	5 (Level 5: growth control rate is above 85%)
CCOC(C)=NOC(=O)C1(C)CC(c2cc(-n3c(=O)n(C)c(=S)n(C)c3=O)c(F)cc2Cl)=NO1 (mixture of isomers) [Compound 120]	5 (Level 5: growth control rate is above 85%)	5 (Level 5: growth control rate is above 85%)	5 (Level 5: growth control rate is above 85%)	5 (Level 5: growth control rate is above 85%)	5 (Level 5: growth control rate is above 85%)	5 (Level 5: growth control rate is above 85%)	5 (Level 5: growth control rate is above 85%)	5 (Level 5: growth control rate is above 85%)	5 (Level 5: growth control rate is above 85%)
Cn1c(=S)n(C)c(=S)n(-c2cc(C3=NOC(C)(C(=O)ON=C4CCCC4)C3)c(Cl)cc2F)c1=O (stereo not drawn) [Compound 74]	5 (Level 5: growth control rate is above 85%)	5 (Level 5: growth control rate is above 85%)	5 (Level 5: growth control rate is above 85%)	5 (Level 5: growth control rate is above 85%)	5 (Level 5: growth control rate is above 85%)	5 (Level 5: growth control rate is above 85%)	5 (Level 5: growth control rate is above 85%)	5 (Level 5: growth control rate is above 85%)	5 (Level 5: growth control rate is above 85%)
Cn1c(=S)n(C)c(=S)n(-c2cc(C3=NOC(C)(C(=O)ON=C(c4ccccc4)c4ccccc4)C3)c(Cl)cc2F)c1=O (stereo not drawn) [Compound 71]	5 (Level 5: growth control rate is above 85%)	5 (Level 5: growth control rate is above 85%)	5 (Level 5: growth control rate is above 85%)	5 (Level 5: growth control rate is above 85%)	5 (Level 5: growth control rate is above 85%)	5 (Level 5: growth control rate is above 85%)	5 (Level 5: growth control rate is above 85%)	5 (Level 5: growth control rate is above 85%)	5 (Level 5: growth control rate is above 85%)
CCOC(=O)C(C)=NOC(=O)C1(C)CC(c2cc(-n3c(=O)n(C)c(=S)n(C)c3=S)c(F)cc2Cl)=NO1 (stereo not drawn) [Compound 75]	5 (Level 5: growth control rate is above 85%)	5 (Level 5: growth control rate is above 85%)	5 (Level 5: growth control rate is above 85%)	5 (Level 5: growth control rate is above 85%)	5 (Level 5: growth control rate is above 85%)	5 (Level 5: growth control rate is above 85%)	5 (Level 5: growth control rate is above 85%)	5 (Level 5: growth control rate is above 85%)	5 (Level 5: growth control rate is above 85%)
